Experimental data as given in ChEMBL document CHEMBL5154777, “Alternative approaches utilizing click chemistry to develop next-generation analogs of solithromycin” (2022).
≈ marks a conversion by molar mass, not a printed value.

How the values were obtained:
Format in all cases: functional
Escherichia coli [1] = assay: Antibacterial activity against Escherichia coli DK
Escherichia coli [2] = assay: Antibacterial activity against Escherichia coli DK3535
Escherichia coli [3] = assay: Antibacterial activity against Escherichia coli DK2058G
Staphylococcus aureus [4] = assay: Antibacterial activity against Staphylococcus aureus ATCC 29213
Staphylococcus aureus [5] = assay: Antibacterial activity against Staphylococcus aureus UCN18
Staphylococcus aureus [6] = assay: Antibacterial activity against Staphylococcus aureus UCN14
Escherichia coli [7] = assay: Antibacterial activity against Escherichia coli SQ171
Escherichia coli [8] = assay: Antibacterial activity against Escherichia coli SQ171 2058G
Staphylococcus aureus [9] = assay: Antibacterial activity against Staphylococcus aureus UCN17
Streptococcus pneumoniae [10] = assay: Antibacterial activity against Streptococcus pneumoniae 2634 mef A 2059G
Streptococcus pneumoniae [11] = assay: Antibacterial activity against Streptococcus pneumoniae 2196 erm B
Staphylococcus aureus [12] = assay: Antibacterial activity against Staphylococcus aureus ATCC 33591
Streptococcus pneumoniae [13] = assay: Antibacterial activity against Streptococcus pneumoniae 655 mef A
Escherichia coli [14] = assay: Antibacterial activity against Escherichia coli MG1655
Klebsiella pneumoniae = assay: Antibacterial activity against Klebsiella pneumoniae BAA 2146
Enterococcus faecium = assay: Antibacterial activity against Enterococcus faecium NCTC 7171
Acinetobacter baumannii = assay: Antibacterial activity against Acinetobacter baumannii 2208 ATCC 19606
Pseudomonas aeruginosa = assay: Antibacterial activity against Pseudomonas aeruginosa HER 1018
Enterobacter cloacae = assay: Antibacterial activity against Enterobacter cloacae ATCC 13047
Staphylococcus aureus [15] = assay: Antibacterial activity against methicillin-resistant Staphylococcus aureus ATCC 43300

SMILES | MIC (Escherichia coli [1]) [µM] | MIC (Escherichia coli [2]) [µM] | MIC (Escherichia coli [3]) [µM] | MIC (Staphylococcus aureus [4]) [µM] | MIC (Staphylococcus aureus [5]) [µM] | MIC (Staphylococcus aureus [6]) [µM] | MIC (Escherichia coli [7]) [µM] | MIC (Escherichia coli [8]) [µM] | MIC (Staphylococcus aureus [9]) [µM] | MIC (Streptococcus pneumoniae [10]) [µM] | MIC (Streptococcus pneumoniae [11]) [µM] | MIC (Staphylococcus aureus [12]) [µM] | MIC (Streptococcus pneumoniae [13]) [µM] | MIC (Escherichia coli [14]) [µM] | MIC (Klebsiella pneumoniae) [µM] | MIC (Enterococcus faecium) [µM] | MIC (Acinetobacter baumannii) [µM] | MIC (Pseudomonas aeruginosa) [µM] | MIC (Enterobacter cloacae) [µM] | MIC (Staphylococcus aureus [15]) [µM]
CC[C@H]1OC(=O)[C@@](C)(F)C(=O)[C@H](C)[C@@H](O[C@@H]2O[C@H](C)C[C@H](N(C)CCn3cc(-c4cccc(N)c4)nn3)[C@H]2O)[C@](C)(OC)C[C@@H](C)C(=O)[C@H](C)C2N(CCCCn3cc(-c4cccc(N)c4)nn3)C(=O)O[C@@]21C (single isomer, unassigned) | > 31 | > 31 | > 31 | 0.49 (≈ 0.498 µg/mL) | > 130 | > 130 | > 31 | > 31 | > 130 | – | – | – | – | – | – | – | – | – | – | –
CC[C@H]1OC(=O)[C@@](C)(F)C(=O)[C@H](C)[C@@H](OC[C@@H](O)CN2CCOCC2)[C@](C)(OC)C[C@@H](C)C(=O)[C@H](C)C2N(CCCCn3cc(-c4cccc(N)c4)nn3)C(=O)O[C@@]21C (single isomer, unassigned) | – | 4.8 (≈ 3.99 µg/mL) | 4.8 (≈ 3.99 µg/mL) | – | > 150 | > 150 | – | – | > 150 | > 4.8 | > 4.8 | > 150 | > 4.8 | – | – | – | – | – | – | –
CC[C@H]1OC(=O)[C@@](C)(F)C(=O)[C@H](C)[C@@H](O[C@@H]2O[C@H](C)C[C@H](N(C)C)[C@H]2O)[C@](C)(OC)C[C@@H](C)C(=O)[C@H](C)C2N(C/C=C/Cn3cc(-c4cccc(O)c4)nn3)C(=O)O[C@@]21C (single isomer, unassigned) | 2.4 (≈ 2.03 µg/mL) | 2.4 (≈ 2.03 µg/mL) | 2.4 (≈ 2.03 µg/mL) | < 0.074 | 4.7 (≈ 3.97 µg/mL) | 9.5 (≈ 8.02 µg/mL) | > 38 | > 38 | 9.5 (≈ 8.02 µg/mL) | – | – | – | – | – | – | – | – | – | – | –
CC[C@H]1OC(=O)[C@@](C)(F)C(=O)[C@H](C)[C@@H](O[C@@H]2O[C@H](C)C[C@H](N(C)CCCCn3cc(-c4cccc(N)c4)nn3)[C@H]2O)[C@](C)(OC)C[C@@H](C)C(=O)[C@H](C)C2N(CCCCn3cc(-c4cccc(N)c4)nn3)C(=O)O[C@@]21C (single isomer, unassigned) | 7.7 (≈ 8.05 µg/mL) | 3.8 (≈ 3.97 µg/mL) | > 31 | 0.96 (≈ 1 µg/mL) | > 120 | > 120 | > 31 | > 31 | > 120 | – | – | – | – | – | – | – | – | – | – | –
CC[C@H]1OC(=O)[C@@](C)(F)C(=O)[C@H](C)[C@@H](O[C@@H]2O[C@H](C)C[C@H](N(C)CCCn3cc(-c4cccnc4)nn3)[C@H]2O)[C@](C)(OC)C[C@@H](C)C(=O)[C@H](C)C2N(CCCCn3cc(-c4cccc(N)c4)nn3)C(=O)O[C@@]21C (single isomer, unassigned) | 3.9 (≈ 3.97 µg/mL) | 7.9 (≈ 8.04 µg/mL) | 7.9 (≈ 8.04 µg/mL) | 3.9 (≈ 3.97 µg/mL) | > 130 | > 130 | > 31 | > 31 | > 130 | – | – | – | – | – | – | – | – | – | – | –
CC[C@H]1OC(=O)[C@@](C)(F)C(=O)[C@H](C)[C@@H](O[C@@H]2O[C@H](C)C[C@H](N(C)CCCn3cc(-c4cccc(N)c4)nn3)[C@H]2O)[C@](C)(OC)C[C@@H](C)C(=O)[C@H](C)C2N(CCCCn3cc(-c4cccc(N)c4)nn3)C(=O)O[C@@]21C (single isomer, unassigned) | 3.9 (≈ 4.02 µg/mL) | 3.9 (≈ 4.02 µg/mL) | 16 (≈ 16.5 µg/mL) | 0.97 (≈ 1 µg/mL) | > 120 | > 120 | > 31 | > 31 | > 120 | – | – | – | – | – | – | – | – | – | – | –
C=CCN(C)[C@H]1C[C@@H](C)O[C@@H](O[C@@H]2[C@@H](C)C(=O)[C@](C)(F)C(=O)O[C@H](CC)[C@@]3(C)OC(=O)N(CCCCN=[N+]=[N-])C3[C@@H](C)C(=O)[C@H](C)C[C@@]2(C)OC)[C@@H]1O (single isomer, unassigned) | 0.66 (≈ 0.498 µg/mL) | 11 (≈ 8.29 µg/mL) | 5.3 (≈ 4 µg/mL) | 0.66 (≈ 0.498 µg/mL) | > 170 | > 170 | > 42 | > 42 | > 170 | – | – | – | – | – | – | – | – | – | – | –
CC[C@H]1OC(=O)[C@@](C)(F)C(=O)[C@H](C)[C@@H](O[C@@H]2O[C@H](C)C[C@H](N(C)C)[C@H]2O)[C@](C)(OC)C[C@@H](C)C(=O)[C@H](C)C2N(C/C=C/Cn3cc(-c4cccc(N)c4)nn3)C(=O)O[C@@]21C (single isomer, unassigned) | 2.4 (≈ 2.02 µg/mL) | 2 (≈ 1.69 µg/mL) | 2.4 (≈ 2.02 µg/mL) | < 0.074 | < 0.074 | 2.4 (≈ 2.02 µg/mL) | > 38 | > 38 | 0.15 (≈ 0.126 µg/mL) | – | – | – | – | – | – | – | – | – | – | –
CC(=O)NC[C@H]1CN(c2ccc(N3CCOCC3)c(F)c2)C(=O)O1 [LINEZOLID] | – | – | – | – | – | – | – | – | – | – | – | – | – | > 200 | > 200 | 6 (≈ 2.02 µg/mL) | > 200 | > 200 | > 200 | 6 (≈ 2.02 µg/mL)
